Values quoted from earlier work in US8410057B2, “Method of inducing T cell apoptosis by administering Altered Peptide Ligand” (Centro de Ingenieria Genetica y Biotecnologia, priority 2008, dated 2013).

System: monocytes and activated lamina propria T cells
Details: Crohn's disease patients; Van den Brande et al. 2003

Etanercept
induction of apoptosis: does not induce cell apoptosis

infliximab: chimeric monoclonal antibody that binds to and neutralizes free and bound TNFα
induction of apoptosis: induce apoptosis of monocytes and activated lamina propria T cells
